Legend:
Type in all cases: in vivo, LDLR KO mice
ANGPTL3 protein = assay: Example 14: RNAi agent and statin, serum ANGPTL3 protein by ELISA in LDLR knockout mice; conditions: no injection
Excerpt: (§1) To evaluate the effect of co-administration of RNAi agents and statins in a disease model, LDLR KO mice were commercially obtained (The Jackson Laboratory). For three weeks prior to the onset of the study, forty-one (41) male 7 to 8 week old LDLR KO mice were placed on a high fat (“western”) diet (Teklad Custom Diets TD.88137), and remained on that diet throughout the duration of the study. Pre-dose serum samples were taken on study Day 1 after a four hour fast. The dosing regimen for the study is recited in the following Table 72:
(§2) • Mice were treated at 40 mg/kg for the first 11 days, then switched to 20 mg/kg thereafter.
(§3) The vehicle used for the oral gavage in the study was a 1:1 mixture of Ora-Plus®: Ora-Sweet® solution, which were acquired commercially. For the preparation of the atorvastatin oral gavage administrations, the respective desired dose of atorvastatin was first dissolved in sterile water (0.3 mL water per 1 mL of desired formulation) and vortexed until smooth, followed by the addition of a mixture of 1:1 Ora-Plus®: Ora-Sweet® solution (0.7 mL vehicle per 1 mL of desired formulation) and vortexed. On day 1 and for each day thereafter an oral gavage dose was administered for each of the Groups except for Group 2. On Day 23, Groups 1, 2, 3, and 4 received a single subcutaneous administration of 2.5 mg/kg dose ([…] solution) of an ANGPTL3 RNAi agent in D5W (dextrose in 5% water), or vehicle control (D5W) with no RNAi agent.
(§4) The RNAi agent tested (AD05488) included a modified sequence and an N-acetyl-galactosamine-containing targeting ligand conjugated to the 5′ terminal end of the sense strand. (See Tables 3, 4, and 5 for modified sequences and targeting ligand structures). The injections were performed between the skin and muscle (i.e. subcutaneous injections) into the loose skin over the neck and shoulder area. Serum was collected on days 8, 15, 22 (pre-RNAi agent injection), 29, 36, 43, and 50. LDLR KO mice were fasted for four hours prior to each collection.
(§5) ANGPTL3 protein levels in serum were measured by ELISA assay (R&D Systems), according to the manufacturer's recommendations. Among other biomarkers, triglycerides, total cholesterol, and low-density lipoprotein (LDL) in serum were measured on a Cobas® Integra 400 (Roche Diagnostics), according to the manufacturer's recommendations.
(§6) The ANGPTL3 protein levels, triglyceride levels, total cholesterol levels, HDL levels, and LDL levels for each animal were normalized. For normalization, respective levels of ANGPTL3 protein, TG, total cholesterol, or LDL for each animal at a time point was divided by the pre-treatment level of expression in that animal (in this case pre-dose levels on Day 1) to determine the ratio of expression “normalized to pre-treatment.” Data from the study set forth in this Example are shown in the following Tables 73-76: […]

ANGPTL3 gene [1] = assay: Example 14: RNAi agent and statin, serum triglycerides in LDLR knockout mice; conditions: for Avg TG normalized to pre-treatment: no injection
Excerpt: as §1, §2, §3, §4, §5, §6

ANGPTL3 gene [2] = assay: Example 14: RNAi agent and statin, serum total cholesterol in LDLR knockout mice; conditions: for Avg Total Chol normalized to pre-treatment: no injection
Excerpt: as §1, §2, §3, §4, §5, §6

ANGPTL3 gene [3] = assay: Example 14: RNAi agent and statin, serum LDL in LDLR knockout mice; conditions: for Avg LDL normalized to pre-treatment: no injection
Excerpt: as §1, §2, §3, §4, §5, §6

[4] = Group 5: 10 mg/kg daily oral gavage atorvastatin, Day 8
[5] = Group 5: 10 mg/kg daily oral gavage atorvastatin, Day 15
[6] = Group 5: 10 mg/kg daily oral gavage atorvastatin, Day 22
[7] = Group 5: 10 mg/kg daily oral gavage atorvastatin, Day 29
[8] = Group 5: 10 mg/kg daily oral gavage atorvastatin, Day 36
[9] = Group 5: 10 mg/kg daily oral gavage atorvastatin, Day 43
[10] = Group 5: 10 mg/kg daily oral gavage atorvastatin, Day 50
[11] = Group 6: 20 mg/kg* daily oral gavage atorvastatin (40 mg/kg first 11 days), Day 8
[12] = Group 6: 20 mg/kg* daily oral gavage atorvastatin (40 mg/kg first 11 days), Day 15
[13] = Group 6: 20 mg/kg* daily oral gavage atorvastatin (40 mg/kg first 11 days), Day 22
[14] = Group 6: 20 mg/kg* daily oral gavage atorvastatin (40 mg/kg first 11 days), Day 29
[15] = Group 6: 20 mg/kg* daily oral gavage atorvastatin (40 mg/kg first 11 days), Day 36
[16] = Group 6: 20 mg/kg* daily oral gavage atorvastatin (40 mg/kg first 11 days), Day 43
[17] = Group 6: 20 mg/kg* daily oral gavage atorvastatin (40 mg/kg first 11 days), Day 50
[18] = daily atorvastatin by oral gavage, LDLR KO mice on high fat diet

## CC(C)c1c(C(=O)Nc2ccccc2)c(-c2ccccc2)c(-c2ccc(F)cc2)n1CC[C@@H](O)C[C@@H](O)CC(=O)O [atorvastatin, reference compound]
ANGPTL3 protein; [4]
  Avg ANGPTL3 normalized to pre-treatment: 1.577
ANGPTL3 protein; [5]
  Avg ANGPTL3 normalized to pre-treatment: 1.839
ANGPTL3 protein; [6]
  Avg ANGPTL3 normalized to pre-treatment: 1.693
ANGPTL3 protein; [7]
  Avg ANGPTL3 normalized to pre-treatment: 1.764
ANGPTL3 protein; [8]
  Avg ANGPTL3 normalized to pre-treatment: 1.851
ANGPTL3 protein; [9]
  Avg ANGPTL3 normalized to pre-treatment: 1.758
ANGPTL3 protein; [10]
  Avg ANGPTL3 normalized to pre-treatment: 1.878
ANGPTL3 protein; [11]
  Avg ANGPTL3 normalized to pre-treatment: 1.553
ANGPTL3 protein; [12]
  Avg ANGPTL3 normalized to pre-treatment: 1.924
ANGPTL3 protein; [13]
  Avg ANGPTL3 normalized to pre-treatment: 1.871
ANGPTL3 protein; [14]
  Avg ANGPTL3 normalized to pre-treatment: 1.767
ANGPTL3 protein; [15]
  Avg ANGPTL3 normalized to pre-treatment: 1.981
ANGPTL3 protein; [16]
  Avg ANGPTL3 normalized to pre-treatment: 1.935
ANGPTL3 protein; [17]
  Avg ANGPTL3 normalized to pre-treatment: 1.847
ANGPTL3 gene [1]; [4]
  Avg TG normalized to pre-treatment: 0.667
ANGPTL3 gene [1]; [5]
  Avg TG normalized to pre-treatment: 0.601
ANGPTL3 gene [1]; [6]
  Avg TG normalized to pre-treatment: 1.086
ANGPTL3 gene [1]; [7]
  Avg TG normalized to pre-treatment: 0.803
ANGPTL3 gene [1]; [8]
  Avg TG normalized to pre-treatment: 0.958
ANGPTL3 gene [1]; [9]
  Avg TG normalized to pre-treatment: 0.862
ANGPTL3 gene [1]; [10]
  Avg TG normalized to pre-treatment: 0.977
ANGPTL3 gene [1]; [11]
  Avg TG normalized to pre-treatment: 0.477
ANGPTL3 gene [1]; [12]
  Avg TG normalized to pre-treatment: 0.362
ANGPTL3 gene [1]; [13]
  Avg TG normalized to pre-treatment: 0.505
ANGPTL3 gene [1]; [14]
  Avg TG normalized to pre-treatment: 0.552
ANGPTL3 gene [1]; [15]
  Avg TG normalized to pre-treatment: 0.598
ANGPTL3 gene [1]; [16]
  Avg TG normalized to pre-treatment: 0.603
ANGPTL3 gene [1]; [17]
  Avg TG normalized to pre-treatment: 0.677
ANGPTL3 gene [1]; [18]
  reduction in triglycerides: 40-60%
ANGPTL3 gene [2]; [4]
  Avg Total Chol normalized to pre-treatment: 0.821
ANGPTL3 gene [2]; [5]
  Avg Total Chol normalized to pre-treatment: 0.774
ANGPTL3 gene [2]; [6]
  Avg Total Chol normalized to pre-treatment: 0.980
ANGPTL3 gene [2]; [7]
  Avg Total Chol normalized to pre-treatment: 0.943
ANGPTL3 gene [2]; [8]
  Avg Total Chol normalized to pre-treatment: 1.105
ANGPTL3 gene [2]; [9]
  Avg Total Chol normalized to pre-treatment: 0.998
ANGPTL3 gene [2]; [10]
  Avg Total Chol normalized to pre-treatment: 0.987
ANGPTL3 gene [2]; [11]
  Avg Total Chol normalized to pre-treatment: 0.586
ANGPTL3 gene [2]; [12]
  Avg Total Chol normalized to pre-treatment: 0.620
ANGPTL3 gene [2]; [13]
  Avg Total Chol normalized to pre-treatment: 0.767
ANGPTL3 gene [2]; [14]
  Avg Total Chol normalized to pre-treatment: 0.761
ANGPTL3 gene [2]; [15]
  Avg Total Chol normalized to pre-treatment: 0.825
ANGPTL3 gene [2]; [16]
  Avg Total Chol normalized to pre-treatment: 0.767
ANGPTL3 gene [2]; [17]
  Avg Total Chol normalized to pre-treatment: 0.807
ANGPTL3 gene [2]; [18]
  reduction in total cholesterol: 23-40%
ANGPTL3 gene [3]; [4]
  Avg LDL normalized to pre-treatment: 0.778
ANGPTL3 gene [3]; [5]
  Avg LDL normalized to pre-treatment: 0.695
ANGPTL3 gene [3]; [6]
  Avg LDL normalized to pre-treatment: 0.861
ANGPTL3 gene [3]; [7]
  Avg LDL normalized to pre-treatment: 0.881
ANGPTL3 gene [3]; [8]
  Avg LDL normalized to pre-treatment: 0.996
ANGPTL3 gene [3]; [9]
  Avg LDL normalized to pre-treatment: 0.929
ANGPTL3 gene [3]; [10]
  Avg LDL normalized to pre-treatment: 0.872
ANGPTL3 gene [3]; [11]
  Avg LDL normalized to pre-treatment: 0.490
ANGPTL3 gene [3]; [12]
  Avg LDL normalized to pre-treatment: 0.556
ANGPTL3 gene [3]; [13]
  Avg LDL normalized to pre-treatment: 0.687
ANGPTL3 gene [3]; [14]
  Avg LDL normalized to pre-treatment: 0.700
ANGPTL3 gene [3]; [15]
  Avg LDL normalized to pre-treatment: 0.716
ANGPTL3 gene [3]; [16]
  Avg LDL normalized to pre-treatment: 0.689
ANGPTL3 gene [3]; [17]
  Avg LDL normalized to pre-treatment: 0.687
ANGPTL3 gene [3]; [18]
  reduction in LDL: 30-45%
